Laboratory results from US11051515B2, “3-acyl-benzamides and their use as herbicides” (Bayer Aktiengesellschaft, priority 2017, dated 2021).

Columns and labels:
[1] = test system: MATIN; assay: Pre-emergence action against MATIN; format: in vivo, Matricaria inodora; settings: for pest or weed control at 320 g/ha: Tripleurospermum inodorum, 504 h, Dosage 320 g/ha, pre-emergence
Method in brief: (§1)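 Seeds sown in sandy loam in wood-fiber pots and covered with soil. Greenhouse growth; visual damage scored after 3 weeks versus untreated controls (100% = dead, 0% = like control).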

[2] = test system: VIOTR; assay: Post-emergence action against VIOTR; format: in vivo, Viola tricolor; settings: for pest or weed control at 80 g/ha: Viola tricolor, 504 h, post-emergence, dosage 80 g/ha; for Herbicidal efficacy against VIOTR: Table V16, post-emergence
Method in brief: (§2)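 Post-emergence foliar spray on greenhouse plants at the one-leaf stage, using wettable-powder or emulsion-concentrate formulations in water (600 to […], plus 0.2% wetting agent). Damage scored by eye roughly 3 weeks later against untreated plants: 0% = like control, 100% = dead.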

[3] = test system: PHBPU; assay: Pre-emergence action against PHBPU; format: in vivo, Pharbitis purpurea; settings: Ipomoea purpurea, 504 h; Dosage 320 g/ha, pre-emergence
Method in brief: as §1

[4] = test system: LOLRI; assay: Pre-emergence action against LOLRI; format: in vivo, Lolium rigidum; settings: Lolium rigidum, 504 h, dosage 320 g/ha, scored visually after 3 weeks vs untreated controls, read-out: Pre-emergence action against LOLRI (herbicidal activity)
Method in brief: as §1

[5] = test system: ABUTH; assay: Pre-emergence action against ABUTH; format: in vivo, Abutilon theophrasti; settings: for pest or weed control at 320 g/ha: Abutilon theophrasti, 504 h, pre-emergence, dosage 320 g/ha, scored visually after 3 weeks vs untreated controls, read-out: Pre-emergence action against ABUTH (herbicidal activity)
Method in brief: as §1

[6] = test system: STEME; assay: Pre-emergence action against STEME; format: in vivo, Stellaria media; settings: for pest or weed control at 320 g/ha: Stellaria media, 504 h, Dosage 320 g/ha, pre-emergence
Method in brief: as §1

[7] = test system: AMARE; assay: Pre-emergence action against AMARE; format: in vivo, Amaranthus retroflexus; settings: for pest or weed control at 320 g/ha: Amaranthus retroflexus, 504 h, pre-emergence, dosage 320 g/ha, scored visually after 3 weeks vs untreated controls, read-out: Pre-emergence action against AMARE (herbicidal activity)
Method in brief: as §1

[8] = test system: ALOMY; assay: Pre-emergence action against ALOMY; format: in vivo, Alopecurus myosuroides; settings: for pest or weed control at 320 g/ha: Alopecurus myosuroides, 504 h, dosage 320 g/ha, pre-emergence, scored visually after 3 weeks vs untreated controls, 100% = plants have died, 0% = like control plants, read-out: Pre-emergence action against ALOMY (herbicidal activity in percent); for Herbicidal efficacy against ALOMY: 80 g of a.i./ha
Method in brief: as §1

[9] = test system: LOLRI; assay: Post-emergence action against LOLRI; format: in vivo, Lolium rigidum; settings: Lolium rigidum, 504 h, dosage 80 g/ha, visual assessment about 3 weeks after treatment vs untreated controls, read-out: Post-emergence action against LOLRI (herbicidal action in percent)
Method in brief: as §2

[10] = test system: HORMU; assay: Pre-emergence action against HORMU; format: in vivo, Hordeum murinum; settings: Hordeum murinum, 504 h, Dosage 320 g/ha
Method in brief: as §1

[11] = test system: DIGSA; assay: Pre-emergence action against DIGSA; format: in vivo, Digitaria sanguinalis; settings: dosage 320 g/ha, scored visually after 3 weeks vs untreated controls
Method in brief: as §1

[12] = test system: DIGSA; assay: Post-emergence action against DIGSA; format: in vivo, Digitaria sanguinalis; settings: dosage 80 g/ha, visual assessment about 3 weeks after treatment vs untreated controls
Method in brief: as §2

[13] = test system: LOLMU; assay: Pre-emergence action against LOLMU; format: in vivo, Lolium multiflorum; settings: Lolium multiflorum, 504 h, dosage 320 g/ha, scored visually after 3 weeks vs untreated controls, read-out: Pre-emergence action against LOLMU (herbicidal activity)
Method in brief: as §1

[14] = test system: LOLMU; assay: Post-emergence action against LOLMU; format: in vivo, Lolium multiflorum; settings: Lolium multiflorum, 504 h, dosage 80 g/ha, visual assessment about 3 weeks after treatment vs untreated controls, read-out: Post-emergence action against LOLMU (herbicidal action in percent)
Method in brief: as §2

[15] = test system: HORMU; assay: Post-emergence action against HORMU; format: in vivo, Hordeum murinum; settings: dosage 80 g/ha
Protocol: Seeds of monocotyledonous and dicotyledonous weed and crop plants are laid out in sandy loam soil in wood-fiber pots, covered with soil and cultivated in a greenhouse under good growth conditions. 2 to 3 weeks after sowing, the test plants are treated at the one-leaf stage. The compounds of the invention, formulated in the form of wettable powders (WP) or as emulsion concentrates (EC), are then sprayed onto the green parts of the plants in the form of an aqueous suspension or emulsion at a water application rate equating to […], with addition of 0.2% wetting agent. After the test plants have been left to stand in the greenhouse under optimal growth conditions for about 3 weeks, the action of the preparations is assessed visually in comparison to untreated controls (herbicidal action in percent (%): 100% activity=the plants have died, 0% activity=like control plants). […] At the same time, inventive compounds leave Gramineae crops such as barley, wheat, rye, millet/Sorghum, corn or rice virtually undamaged when applied post-emergence, even at high active ingredient dosages. In addition, some substances are also harmless to dicotyledonous crops such as soya, cotton, oilseed rape, sugar beet or potatoes. Some of the compounds according to the invention have high selectivity and are therefore suitable for controlling unwanted vegetation in agricultural crops by the post-emergence method. The data of Tables B18 to B34 below illustrate, in an exemplary manner, the […] herbicidal action of the compounds according to the invention, the herbicidal activity being stated in percent.

[16] = Table V3, pre-emergence, 80 g of a.i./ha
[17] = Table V4, pre-emergence, 20 g of a.i./ha

Structure (SMILES) | pest or weed control at 320 g/ha [1] [%] | pest or weed control at 80 g/ha [2] [%] | pest or weed control at 320 g/ha [3] [%] | pest or weed control at 320 g/ha [4] [%] | pest or weed control at 320 g/ha [5] [%] | pest or weed control at 320 g/ha [6] [%] | pest or weed control at 320 g/ha [7] [%] | pest or weed control at 320 g/ha [8] [%] | pest or weed control at 80 g/ha [9] [%] | pest or weed control at 320 g/ha [10] [%] | Pre-emergence action against DIGSA (herbicidal activity) [11] [%] | Post-emergence action against DIGSA (herbicidal action in percent) [12] [%] | pest or weed control at 320 g/ha [13] [%] | other results
CC(=O)c1c(C(F)F)ccc(C(=O)Nc2nnnn2C)c1Cl [1-164] | 100 | 100 | 100 | 100 | 100 | 100 | 100 | 100 | 90 | 90 |  |  |  | 
CCCC(=O)c1c(C(F)(F)F)ccc(C(=O)Nc2nnnn2C)c1C [1-16] | 100 | 100 | 90 | 100 | 100 | 100 | 100 | 90 | 80 | 90 | 100 | 90 |  | 
CCC(=O)c1c(C(F)F)ccc(C(=O)Nc2nnnn2C)c1Cl [1-165] | 100 | 90 | 100 | 100 | 100 | 100 | 100 | 100 | 80 | 90 | 100 | 100 |  | 
CC(=O)c1c(C(F)(F)F)ccc(C(=O)Nc2nnnn2C)c1Cl [1-137, 3-acetyl-2-chloro-N-(1-methyl-1H-tetrazol-5-yl)-4-(trifluoromethyl)benzamide] | 100 | 100 | 90 |  | 100 | 100 | 100 | 90 |  |  |  |  | 100 | pest or weed control at 80 g/ha [14]: 100%
CC(=O)c1c(S(C)(=O)=O)ccc(C(=O)Nc2nnnn2C)c1Cl [1-127] | 100 | 100 | 90 |  | 100 | 90 | 100 | 100 |  |  |  |  | 80 | Herbicidal efficacy against MATIN [1, 16]: 90; Herbicidal efficacy against MATIN [1, 17]: 70; Herbicidal efficacy against VIOTR ([2]; 5 g of a.i./ha): 100; Herbicidal efficacy against VIOTR ([2]; 20 g of a.i./ha): 100; Herbicidal efficacy against ABUTH [5, 16]: 100; Herbicidal efficacy against ABUTH [5, 17]: 90; Herbicidal efficacy against STEME [6, 17]: 70; Herbicidal efficacy against AMARE [7, 16]: 100; Herbicidal efficacy against ALOMY ([8]; Table V1, pre-emergence): 80; Herbicidal efficacy against ALOMY ([8]; Table V3, pre-emergence): 80
CSc1c(C(=O)Nc2nnnn2C)ccc(C(F)F)c1C(=O)C1CC1 [1-67] | 100 | 100 | 100 | 100 | 100 | 100 | 100 | 100 | 100 | 80 |  |  |  | Post-emergence action against HORMU [15]: 100
